Results taken from US9603364B2 (Dow AgroSciences LLC, priority 2013, dated 2017).

How the values were obtained:
Test in all cases: General post-emergent herbicidal activity, foliar application
Type in all cases: in vivo
[1] = system: Amaranthus retroflexus L. (pigweed, redroot); conditions: for pest or weed control at 70 g/ha: 70 g ai/ha; for pest or weed control at 140 g/ha: 140 g ai/ha; for pest or weed control at 280 g/ha: 280 g ai/ha; for GR80 Value AMARE: calculated by probit analysis, dose for 80% visual injury, may be extrapolated
In short: (§1)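 Visual injury ratings on a scale of 0 (none) to 100% (complete kill), taken 14 days after foliar post-emergence treatment of greenhouse plants and compared with untreated plants, were fitted by probit analysis to give GR20, GR50 and GR80 doses; some GR80 values are extrapolated from the slope. Sprays contained crop oil concentrate and surfactant, with rates from the highest down to 1/16×.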

[2] = system: Chenopodium album L. (lambsquarters, common); conditions: for pest or weed control at 70 g/ha: 70 g ai/ha; for pest or weed control at 140 g/ha: 140 g ai/ha; for pest or weed control at 280 g/ha: 280 g ai/ha; for GR80 Value CHEAL: calculated by probit analysis, dose for 80% visual injury, may be extrapolated
In short: as §1

[3] = system: Echinochloa crus-galli (L.) Beauv. (barnyardgrass); conditions: for pest or weed control at 70 g/ha: 70 g ai/ha; for pest or weed control at 140 g/ha: 140 g ai/ha; for pest or weed control at 280 g/ha: 280 g ai/ha; for GR80 Value ECHCG: calculated by probit analysis, dose for 80% visual injury, may be extrapolated
In short: as §1

[4] = system: Euphorbia heterophylla L. (poinsettia, wild); conditions: for pest or weed control at 70 g/ha: 70 g ai/ha; for pest or weed control at 140 g/ha: 140 g ai/ha; for pest or weed control at 280 g/ha: 280 g ai/ha; for GR80 Value EPHHL: calculated by probit analysis, dose for 80% visual injury, may be extrapolated
In short: as §1

[5] = system: Helianthus annuus L. (sunflower, common); conditions: for pest or weed control at 70 g/ha: 70 g ai/ha; for pest or weed control at 140 g/ha: 140 g ai/ha; for pest or weed control at 280 g/ha: 280 g ai/ha; for GR80 Value HELAN: calculated by probit analysis, dose for 80% visual injury, may be extrapolated
In short: as §1

[6] = system: Viola tricolor L. (pansy); conditions: for pest or weed control at 70 g/ha: 70 g ai/ha; for pest or weed control at 140 g/ha: 140 g ai/ha; for pest or weed control at 280 g/ha: 280 g ai/ha; for GR80 Value VIOTR: calculated by probit analysis, dose for 80% visual injury, may be extrapolated
In short: as §1

Oryza sativa L. (rice) = conditions: Oryza sativa, 336 h, scored after 14 days, read-out: % Visual Growth Reduction ORYSA; for plant injury at 70 g/ha: 70 g ai/ha; for plant injury at 140 g/ha: 140 g ai/ha; for plant injury at 280 g/ha: 280 g ai/ha
In short: (§2)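 Compounds in acetone/DMSO (97:3) diluted into aqueous spray with isopropanol, Atplus 411F crop oil and Triton X-155; top rate plus 1/2×–1/16× serial rates applied to foliage, solvent blank as control. Greenhouse, sub-irrigated; visual injury versus untreated plants scored 0–100% (100 = complete kill) after 14 days.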

Zea mays L. (corn) = conditions: 336 h, scored after 14 days, read-out: % Visual Growth Reduction ZEAMX; for plant injury at 70 g/ha: 70 g ai/ha; for plant injury at 140 g/ha: 140 g ai/ha; for plant injury at 280 g/ha: 280 g ai/ha
In short: as §2

[7] = Amaranthus retroflexus, 336 h, foliar post-emergent, scored after 14 days, read-out: % Visual Growth Reduction AMARE
[8] = Chenopodium album, 336 h, foliar post-emergent, scored after 14 days, read-out: % Visual Growth Reduction CHEAL
[9] = Echinochloa crus-galli, 336 h, foliar post-emergent, scored after 14 days, read-out: % Visual Growth Reduction ECHCG
[10] = Euphorbia heterophylla, 336 h, foliar post-emergent, scored after 14 days, read-out: % Visual Growth Reduction EPHHL
[11] = Helianthus annuus, 336 h, foliar post-emergent, scored after 14 days, read-out: % Visual Growth Reduction HELAN
[12] = Viola tricolor, 336 h, foliar post-emergent, scored after 14 days, read-out: % Visual Growth Reduction VIOTR

Row | Compound | pest or weed control at 140 g/ha [1, 7] | pest or weed control at 280 g/ha [1, 7] | GR80 Value AMARE [1] | pest or weed control at 140 g/ha [2, 8] | pest or weed control at 280 g/ha [2, 8] | GR80 Value CHEAL [2] | pest or weed control at 140 g/ha [3, 9] | pest or weed control at 280 g/ha [3, 9] | GR80 Value ECHCG [3] | pest or weed control at 140 g/ha [4, 10] | pest or weed control at 280 g/ha [4, 10] | GR80 Value EPHHL [4] | pest or weed control at 140 g/ha [5, 11] | pest or weed control at 280 g/ha [5, 11] | GR80 Value HELAN [5] | pest or weed control at 140 g/ha [6, 12] | pest or weed control at 280 g/ha [6, 12] | GR80 Value VIOTR [6] | plant injury at 280 g/ha (Oryza sativa L. (rice)) | plant injury at 280 g/ha (Zea mays L. (corn)) | also measured
1 | COC(=O)c1nc(CCF)c(F)c(N)c1Cl [Compound F29, Methyl 4-amino-3-chloro-5-fluoro-6-(2-fluoroethyl)picolinate] | 100% | 100% | 55.1 g ai/ha | 90% | 90% | <17.5 g ai/ha | 10% | 60% | 432 g ai/ha | 100% | 100% | 53.9 g ai/ha | 90% | 90% | 60 g ai/ha | 70% | 90% | 203 g ai/ha | 0% | 0% | pest or weed control at 70 g/ha [1, 7]: 90%; pest or weed control at 70 g/ha [2, 8]: 90%; pest or weed control at 70 g/ha [3, 9]: 0%; pest or weed control at 70 g/ha [4, 10]: 100%; pest or weed control at 70 g/ha [5, 11]: 80%; pest or weed control at 70 g/ha [6, 12]: 10%; plant injury at 70 g/ha (Oryza sativa L. (rice)): 0%; plant injury at 140 g/ha (Oryza sativa L. (rice)): 0%; plant injury at 70 g/ha (Zea mays L. (corn)): 0%; plant injury at 140 g/ha (Zea mays L. (corn)): 0%
2 | CC(F)c1nc(C(=O)O)c(Cl)c(N)c1F (stereo not shown) [Compound F30, 4-amino-3-chloro-5-fluoro-6-(1-fluoroethyl)picolinic acid] | 100% | 100% | 40.6 g ai/ha | 95% | 100% | <17.5 g ai/ha | 65% | 80% | 239 g ai/ha | 100% | 100% | 84.9 g ai/ha | 90% | 90% | 59.3 g ai/ha | 25% | 50% | >280 g ai/ha | 0% | 100% | pest or weed control at 70 g/ha [1, 7]: 100%; pest or weed control at 70 g/ha [2, 8]: 95%; pest or weed control at 70 g/ha [3, 9]: 0%; pest or weed control at 70 g/ha [4, 10]: 70%; pest or weed control at 70 g/ha [5, 11]: 80%; pest or weed control at 70 g/ha [6, 12]: 10%; plant injury at 70 g/ha (Oryza sativa L. (rice)): 0%; plant injury at 140 g/ha (Oryza sativa L. (rice)): 0%; plant injury at 70 g/ha (Zea mays L. (corn)): 100%; plant injury at 140 g/ha (Zea mays L. (corn)): 100%
3 | COC(=O)c1nc(CCF)cc(N)c1Cl [Compound F31, methyl 4-amino-3-chloro-6-(2-fluoroethyl)picolinate] |  |  | <17.5 g ai/ha |  |  | 6.93 g ai/ha |  |  | >180 g ai/ha |  |  | <17.5 g ai/ha |  |  | 42.4 g ai/ha |  |  | 74.4 g ai/ha |  |  | pest or weed control at 180 g/ha ([1]; Amaranthus retroflexus, 336 h, 180 g ai/ha, foliar post-emergent, scored after 14 days, read-out: % Visual Growth Reduction AMARE): 15%; pest or weed control at 180 g/ha ([2]; Chenopodium album, 336 h, 180 g ai/ha, foliar post-emergent, scored after 14 days, read-out: % Visual Growth Reduction CHEAL): 100%; pest or weed control at 180 g/ha ([3]; Echinochloa crus-galli, 336 h, 180 g ai/ha, foliar post-emergent, scored after 14 days, read-out: % Visual Growth Reduction ECHCG): 0%; pest or weed control at 180 g/ha ([4]; Euphorbia heterophylla, 336 h, 180 g ai/ha, foliar post-emergent, scored after 14 days, read-out: % Visual Growth Reduction EPHHL): 45%; pest or weed control at 180 g/ha ([5]; Helianthus annuus, 336 h, 180 g ai/ha, foliar post-emergent, scored after 14 days, read-out: % Visual Growth Reduction HELAN): 90%; pest or weed control at 180 g/ha ([6]; Viola tricolor, 336 h, 180 g ai/ha, foliar post-emergent, scored after 14 days, read-out: % Visual Growth Reduction VIOTR): 100%; plant injury at 180 g/ha (Oryza sativa L. (rice); 180 g ai/ha): 0%; plant injury at 180 g/ha (Zea mays L. (corn); 180 g ai/ha): 0%
4 | Nc1c(F)c(C(F)F)nc(C(=O)O)c1Cl [Compound F32, 4-Amino-3-chloro-6-(difluoromethyl)-5-fluoropicolinic acid] | 55% | 85% | 251 g ai/ha | 90% | 100% | 26.9 g ai/ha | 55% | 60% | 433 g ai/ha | 30% | 50% | >280 g ai/ha | 100% | 100% | 40.8 g ai/ha | 5% | 10% | >280 g ai/ha | 5% | 10% | plant injury at 140 g/ha (Oryza sativa L. (rice)): 0%; plant injury at 140 g/ha (Zea mays L. (corn)): 0%
5 | COC(=O)c1nc(C(Br)CBr)cc(N)c1Cl (stereo not shown) [Compound F34, methyl 4-amino-3-chloro-6-(1,2-dibromoethyl)picolinate] |  |  |  |  |  |  |  |  |  |  |  |  |  |  |  |  |  |  |  |  | pest or weed control at 264 g/ha ([1]; Amaranthus retroflexus, 336 h, 264 g ai/ha, foliar post-emergent, scored after 14 days, read-out: % Visual Growth Reduction AMARE): 0%; pest or weed control at 264 g/ha ([2]; Chenopodium album, 336 h, 264 g ai/ha, foliar post-emergent, scored after 14 days, read-out: % Visual Growth Reduction CHEAL): 60%; pest or weed control at 264 g/ha ([3]; Echinochloa crus-galli, 336 h, 264 g ai/ha, foliar post-emergent, scored after 14 days, read-out: % Visual Growth Reduction ECHCG): 0%; pest or weed control at 264 g/ha ([4]; Euphorbia heterophylla, 336 h, 264 g ai/ha, foliar post-emergent, scored after 14 days, read-out: % Visual Growth Reduction EPHHL): 10%; pest or weed control at 264 g/ha ([5]; Helianthus annuus, 336 h, 264 g ai/ha, foliar post-emergent, scored after 14 days, read-out: % Visual Growth Reduction HELAN): 80%; pest or weed control at 264 g/ha ([6]; Viola tricolor, 336 h, 264 g ai/ha, foliar post-emergent, scored after 14 days, read-out: % Visual Growth Reduction VIOTR): 0%; plant injury at 264 g/ha (Oryza sativa L. (rice); 264 g ai/ha): 0%; plant injury at 264 g/ha (Zea mays L. (corn); 264 g ai/ha): 0%
6 | COC(=O)c1nc(CCl)cc(N)c1Cl [Compound F35, methyl 4-amino-3-chloro-6-(chloromethyl)picolinate] |  | 0% |  |  | 0% |  |  | 0% |  |  | 0% |  |  | 0% |  |  | 0% |  | 0% | 0% | 
